# Assay results reported in patent EP3906926A1, “PROLINE HYDROXYLASE INHIBITORS FOR USE IN THE SKELETAL MUSCLE REGENERATION” (Policlinico San Donato S.p.A.- Istituto di Ricovero e Cura …, priority 2020, dated 2021).
# How the values were obtained:
# Type in all cases: cell-based, murine
# [1] = tested on: HIF-1α; assay: Western blot of HIF-1α nuclear translocation; conditions: IOX2 or FG-4592 for 24 hours, vs untreated control; Lamin A/C housekeeper
# Experimental: (§1) For nuclei separation, 5 x 10^6 cells were collected after enzymatic digestion with trypsin (Merck), centrifuged at the maximum speed, resuspended in 400 µl of Buffer A (10 mM KCl, 0.1 mM EDTA, 1 mM DTT, 10 mM Hepes, pH 7.9), containing protease and phosphatase inhibitors cocktail (Merck), and incubated on ice for 20 minutes. Then, 10% NP40 was added to the cell suspension, mixed for 40 seconds, and centrifuged 40 seconds at the maximum speed. After centrifugation, the pellet was resuspended in 80 µl of Buffer C (0.4M NaCl, 1 mM EDTA, 1 mM DTT, 20 mM Hepes, pH 7.9), containing a protease and phosphatase inhibitors cocktail, and then mixed for 30 minutes at 4°C at the maximum speed. Finally, the nuclear suspension was centrifuged for 5 minutes at 4°C at the maximum speed, collected and transferred in a new tube. The total protein content was determined with the BCA Protein Assay Kit (Pierce), according to the manufacturer's instructions.
# (§2) Proteins were denaturated by boiling for 10 minutes in sample buffer (0.6 g/100 mL Tris, 2 g/100 mL SDS, 10% glycerol, 1% 2-mercaptoethanol, pH 6.8) and loaded into 10% SDS-PAGE gel, then transferred onto a nitrocellulose membrane (Trans-blot, Bio-Rad Laboratories) by electroblotting. Nitrocellulose membranes were incubated with a blocking solution containing 5% (w/v) non-fat dry milk or 5% (w/v) BSA (Merck) in Tris-buffer saline with 0.1% Tween® 20 (TBS-T) for 1 hour. […] Membranes were washed three times for 10 minutes with TBS-T, and then incubated with the appropriate anti-mouse, anti-rabbit, or anti-goat HRP-conjugated secondary antibodies (Dako, Agilent Technologies), 1:2000 dilution, for 1 hour at room temperature. After three washes for 10 minutes with TBS-T, the immunoreactive bands were visualized using the enhanced chemiluminescence detection kit reagents (ECL Advance, GeHealthcare), according to the manufacturer's instructions.
# as §1, with “For total proteins extraction, 7.5 x 10^4 cells were seeded and harvested at 7th days of skeletal muscle differentiation, as previously described. Cells were collected after enzymatic digestion with trypsin (Merck), lysed by sonication and centrifuged at 800 xg for 10 minutes. Supernatant was used to determine total protein content with the BCA Protein Assay Kit (Pierce), according to the manufacturer's instructions. For” for “For”, “(0.4 M” for “(0.4M”
# [2] = tested on: WNT7a promoter; assay: Nano-Glo luciferase reporter assay of pNL1.1-WNT7a promoter activity; conditions: 24 hours at IC50 working concentrations
# Experimental: Genomic DNA was extracted from C2C12 murine myoblast and used as the template for WNT7a promoter amplification. The PCR reaction was prepared using a Phusion High-Fidelity kit (New England Biolabs) and employing the following primers: forward 5'-[…]-3' (SEQ ID NO:1), containing KpnI enzymatic site, and reverse 5'-[…]-3' (SEQ ID NO:2) containing the HindIII enzymatic site. The PCR fragment and the vector pNL1.1(Nluc) (Promega) were digested with KnpI and HindIII (Promega) restriction enzymes for 2 hours at 37°C and, then, they were purified from agarose gel using Wizard® SV Gel and PCR Clean-Up System (Promega). The fragment was inserted into the multiple cloning site of pNL1.1 vector using T4 Ligase Fast (Promega) and the reaction was incubated for 1 hour at room temperature. The presence of the insert in the plasmid was finally verified by DNA sequencing.
# Briefly, cells were seeded in a 96-well plate at a concentration of 5 x 10^3 cells per well, transfected with the pNL1.1 or pNL1.1WNT7a_promoter (90 ng) plasmids and pGL4.54(luc2/TK) (10 ng) plasmid as internal control, according to ViaFect Transfection Reagent® protocol (Promega), and then incubated for 24 hours. […] To turn off the luminescence of the Firefly luciferase and provide the substrate for the Nanoluc, an equal volume of NanoDLR™ Stop&Glo® Reagent was added to the mixture and incubated for 30 minutes before analysis.
# [3] = tested on: MyoD; assay: Western blot of MyoD nuclear localization; conditions: IOX2 or FG-4592 for 24 hours
# Experimental: as §1, §2
# as §1, with “For total proteins extraction, 7.5 x 10^4 cells were seeded and harvested at 7th days of skeletal muscle differentiation, as previously described. Cells were collected after enzymatic digestion with trypsin (Merck), lysed by sonication and centrifuged at 800 xg for 10 minutes. Supernatant was used to determine total protein content with the BCA Protein Assay Kit (Pierce), according to the manufacturer's instructions. For” for “For”, “(0.4 M” for “(0.4M”
Structure (SMILES),"HIF-1α nuclear translocation, protein increase [1]","WNT7a promoter activation, luminescence increase [2]",increase of the nuclear localization of MyoD [3]
O=C(O)CNC(=O)c1c(O)c2ccccc2n(Cc2ccccc2)c1=O [IOX2],8.8 fold,1.4 fold,1.6 fold
"Cc1nc(C(=O)NCC(=O)O)c(O)c2ccc(Oc3ccccc3)cc12 [FG-4592, Roxadustat]",15 fold,1.3 fold,1.5 fold
